Experimental data published in PMC7180830, “Scaffold Hopping in Discovery of HIV-1 Non-Nucleoside Reverse Transcriptase Inhibitors: From CH(CN)-DABOs to CH(CN)-DAPYs” (Molecules, 2020).
Like-named read-outs stand apart in the source and are kept apart here.

Columns and labels:
[1] = system: HIV-1 IIIB; test: Anti-HIV assay against wild-type HIV-1 (IIIB) in MT-4 cells, MTT method; assay type: cell-based; conditions: for SI (selectivity index, ratio CC50/EC50 (WT)): CC50/EC50 WT HIV-1 IIIB
Protocol: (§1) Untreated HIV- and mock-infected cell samples were included as controls. […] Five days after infection, the viability of mock- and HIV-infected cells was examined spectrophotometrically using the MTT assay. […] All data were calculated using the median absorbance value of three wells.

[2] = Cytotoxicity in mock-infected MT-4 cells, MTT method; conditions: human, mock-infected (uninfected) MT-4 cells
Protocol: as §1

[3] = system: HIV-1 L100I mutant strain; test: Anti-HIV assay against L100I mutant strain in MT-4 cells; assay type: cell-based; conditions: Human immunodeficiency virus 1, MT4, read-out: EC50 L100I
Protocol: (§2) Evaluation of the antiviral activity of the compounds against HIV in MT-4 cells was performed using the MTT assay as previously described [24, 25]. […] Prior to use in our assays, every freshly grown virus stock was the subject of a genotypic analysis. In addition to the genotypic analysis, every stock was subject to a phenotypic analysis using a panel of relevant reference compounds in MT-4 cells. […] Stock solutions (10× final concentration) of test compounds were added in 25 μL volumes to two series of triplicate wells so as to allow simultaneous evaluation of their effects on mock- and HIV-infected cells at the beginning of each experiment. Serial 5-fold dilutions of test compounds were made directly in flat-bottomed 96-well microtiter trays using a Biomek 3000 robot (Beckman instruments, Fullerton, CA). Untreated HIV- and mock-infected cell samples were included as controls. HIV stock (50 μL) at 100–300 CCID50 (50% cell culture infectious doses) and culture medium (final 200 μL volume per well) were added to either the infected or mock-infected wells of the microtiter tray. Mock-infected cells were used to evaluate the effects of test compounds on uninfected cells in order to assess the cytotoxicity of the test compounds. Exponentially growing MT-4 cells were centrifuged for 5 min at 220× g and the supernatant was discarded. The MT-4 cells were resuspended at 6 × 10^5 cells/mL and 50 μL volumes were transferred to the microtiter tray wells. Five days after infection, the viability of mock- and HIV-infected cells was examined spectrophotometrically using the MTT assay. The MTT assay is based on the reduction of yellow colored 3-(4,5-dimethylthiazol-2-yl)-2,5-diphenyltetrazolium bromide (MTT) (Acros Organics, Geel, Belgium) by mitochondrial dehydrogenase activity in metabolically active cells to a blue-purple formazan that can be measured spectrophotometrically. The absorbances were read in an eight-channel computer-controlled photometer (Infinite M1000, Tecan, Männedorf, Switzerland) at two wavelengths (540 and 690 nm). All data were calculated using the median absorbance value of three wells.

[4] = system: HIV-1 K103N mutant strain; test: Anti-HIV assay against K103N mutant strain in MT-4 cells; assay type: cell-based; conditions: Human immunodeficiency virus 1, MT4, read-out: EC50 K103N
Protocol: as §2

[5] = system: HIV-1 Y181C mutant strain; test: Anti-HIV assay against Y181C mutant strain in MT-4 cells; assay type: cell-based; conditions: Human immunodeficiency virus 1, MT4, read-out: EC50 Y181C
Protocol: as §2

[6] = system: HIV-1 E138K mutant strain; test: Anti-HIV assay against E138K mutant strain in MT-4 cells; assay type: cell-based; conditions: Human immunodeficiency virus 1, MT4, read-out: EC50 E138K
Protocol: as §2

[7] = system: HIV-1 F227L + V106A mutant strain; test: Anti-HIV assay against double mutant F227L + V106A in MT-4 cells; assay type: cell-based; conditions: Human immunodeficiency virus 1, MT4, read-out: EC50 F227L + V106A
Protocol: as §2

[8] = system: HIV-1 K103N + Y181C mutant strain; test: Anti-HIV assay against double mutant K103N + Y181C in MT-4 cells; assay type: cell-based; conditions: Human immunodeficiency virus 1, MT4, read-out: EC50 K103N + Y181C
Protocol: as §2

[9] = target: T1, WT HIV-1 RT (Human immunodeficiency virus type 1 group M subtype B, UniProt P03366); test: Reverse transcriptase assay (EnzCheck kit, PicoGreen); assay type: biochemical; conditions: recombinant wild type p66/p51 HIV-1 RT
T1 construct: Recombinant wild type p66/p51 HIV-1 RT; made in house
Protocol: The RT assay was performed with the EnzCheck Reverse Transcriptase Assay kit (Molecular Probes, Invitrogen), as described by the Manufacturer. The assay is based on the dsDNA quantitation reagent PicoGreen. […] This condition is met in the assay. A poly(rA) template of approximately 350 bases long and an oligo (dT)16 primer are annealed in a molar ratio of 1:1.2 (60 min at room temperature). Then, 52 ng of the RNA/DNA is brought into each well of a 96-well plate in a volume of 20 μL polymerization buffer (60 mM Tris-HCl, 60 mM KCl, 8 mM MgCl2, 13 mM DTT, 100 μM dTTP, pH 8.1). Then, 5 μL of RT enzyme solution, diluted to a suitable concentration in enzyme dilution buffer (50 mM Tris-HCl, 20% glycerol, 2 mM DTT, pH 7.6), is added. The reactions are incubated at 25 °C for 40 min and then stopped by the addition of EDTA (15 mM fc). Heteroduplexes are then detected by addition of PicoGreen. Signals are read using an excitation wavelength of 490 nm and emission detection at 523 nm using a spectrofluorometer (Safire 2, Tecan). To test the activity of compounds against RT, 1 μL of compound in DMSO was added to each well before the addition of RT enzyme solution. Control wells without compound contained the same amount of DMSO. Results are expressed as relative fluorescence, i.e., the fluorescence signal of the reaction mix with compound divided by the signal of the same reaction mix without compound.

[10] = Human immunodeficiency virus 1, IIIB, MT4, read-out: EC50 HIV-1 IIIB
[11] = Human immunodeficiency virus 1, MT4, wild-type HIV-1 IIIB, MT-4 cells, protection against HIV-induced cytopathogenicity, read-out: EC50 HIV-1 IIIB

| SMILES | SI (selectivity index, ratio CC50/EC50 (WT)) ([1]; MT-4 cells) | EC50 [1, 10] | CC50 at 5 days [2] | EC50 [3] | EC50 [4] | EC50 [5] | EC50 [6] | EC50 [7] | EC50 [8] | melting point | EC50 [1, 11] | fold increase of antiviral activity compared with A2 ([1]; WT HIV-1 IIIB, relative to A2) | IC50 [9] |
| --- | --- | --- | --- | --- | --- | --- | --- | --- | --- | --- | --- | --- | --- |
| Cc1cc(C(C#N)c2ccnc(Nc3ccc(C#N)cc3)n2)ccc1C#N (centres unmarked) [Compound A2, 4-(4-(cyano-(3-methyl-4-cyanophenyl)methyl)-pyrimidin-2-ylamino)benzonitrile] | 14 | 1170 ± 340 nM | 16100 ± 3600 nM | > 16100 nM | > 16100 nM | > 16100 nM | > 16100 nM | > 16100 nM | > 16100 nM | 223.7 to 224.9 °C |  |  |  |
| Cc1cc(/C=C/C#N)cc(C)c1Nc1ccnc(Nc2ccc(C#N)cc2)n1 [Rilpivirine, rilpivirine, reference compound] | 3747 | 1.6 ± 0.3 nM | 5900 ± 300 nM | 2 ± 1 nM | 1 ± 0.2 nM | 3 ± 1 nM | 3 ± 1 nM | 40 ± 10 nM | 9 ± 2 nM |  |  |  |  |
| O=C1Nc2ccc(Cl)cc2[C@@](C#CC2CC2)(C(F)(F)F)O1 [Efavirenz, efavirenz, reference compound] | >3939 |  | > 6300 nM | 40 ± 8 nM | 80 ± 10 nM | 6 ± 1 nM | 5 ± 2 nM | 280 ± 70 nM | 240 ± 60 nM |  | 3 ± 1 nM |  |  |
| Cc1cc(C#N)cc(C)c1Oc1nc(Nc2ccc(C#N)cc2)nc(N)c1Br [Etravirine, etravirine, reference compound] |  | 5 ± 1 nM | > 4600 nM | 8 ± 2 nM | 3 ± 1 nM | 17 ± 3 nM | 8 ± 4 nM | 14 ± 5 nM | 40 ± 10 nM |  |  |  |  |
| N#Cc1ccc(Nc2nccc(C(C#N)c3ccc(C#N)cc3C(F)(F)F)n2)cc1 (centres unmarked) [Compound A6, 4-(4-(cyano-(2-trifluoromethyl-4-cyanophenyl)methyl)-pyrimidin-2-ylamino)benzonitrile] | 13 | 490 ± 300 nM | 6200 ± 1400 nM | > 6230 nM | > 6230 nM | 2290 ± 20 nM | > 6230 nM | > 6230 nM | > 6230 nM | 236.7 to 237.5 °C |  |  |  |
| Cc1cc(C#N)ccc1C(C#N)c1ccnc(Nc2ccc(C#N)cc2)n1 (centres unmarked) [Compound A3, 4-(4-(cyano-(2-methyl-4-cyanophenyl)methyl)-pyrimidin-2-ylamino)benzonitrile] | 157 | 69 ± 8 nM | 10900 ± 3600 nM | 5030 ± 550 nM | 1960 ± 450 nM | 1710 ± 130 nM | 3040 ± 390 nM | > 10900 nM | > 10900 nM | 213.5 to 214.6 °C |  | 17 fold |  |
| N#Cc1ccc(Nc2nccc(C(C#N)c3ccc(C#N)cc3)n2)cc1 (centres unmarked) [Compound A1, 4-(4-(cyano-(4-cyanophenyl)methyl)-pyrimidin-2-ylamino)benzonitrile] |  | 3270 ± 2250 nM | 32700 ± 9900 nM | ≥ 12300 nM | > 32700 nM | 11300 ± 1510 nM | > 32700 nM | > 32700 nM | > 32700 nM |  |  |  |  |
| N#Cc1ccc(Nc2nccc(C(C#N)c3ccc(C#N)cc3Cl)n2)cc1 (centres unmarked) [Compound A8, 4-(4-(cyano-(2-chloro-4-cyanophenyl)methyl)-pyrimidin-2-ylamino)benzonitrile] |  | 63 ± 9 nM | 4600 ± 2700 nM | ≥ 2370 nM | 2130 ± 220 nM | 1870 ± 210 nM | 2200 ± 350 nM | > 4590 nM | > 4590 nM |  |  |  |  |
| N#Cc1ccc(Nc2nccc(C(C#N)c3c(Cl)cc(C#N)cc3Cl)n2)cc1 (centres unmarked) [Compound A10, 4-(4-(cyano-(2,6-dichloro-4-cyanophenyl)methyl)-pyrimidin-2-ylamino)benzonitrile] | 55 | 82 ± 20 nM | 4500 ± 1300 nM | 2320 ± 480 nM | 1780 ± 120 nM | 2200 ± 270 nM | 2190 ± 220 nM | > 4490 nM | > 4490 nM | 152.5 to 153.2 °C |  |  |  |
| COc1cc(C(C#N)c2ccnc(Nc3ccc(C#N)cc3)n2)ccc1C#N (centres unmarked) [Compound A4, 4-(4-(cyano-(3-methoxy-4-cyanophenyl)methyl)-pyrimidin-2-ylamino)benzonitrile] | 7 | 11700 ± 12100 nM | 78400 ± 10400 nM | ≥ 61400 nM | ≥ 62200 nM | ≥ 48100 nM | ≥ 56600 nM | ≥ 61000 nM | ≥ 65700 nM | 156.2 to 157 °C |  |  |  |
| Cc1cnc(Nc2ccc(C#N)cc2)nc1C(C#N)c1ccc(C#N)cc1 (centres unmarked) [Compound B1, 4-(4-(cyano-(4-cyanophenyl)methyl)-5-methylpyrimidin-2-ylamino)benzonitrile] | 356 | 300 ± 110 nM | 109000 ± 80000 nM | 8030 ± 4430 nM | 3950 ± 220 nM | 7050 ± 960 nM | 4920 ± 300 nM | ≥ 59000 nM | > 109000 nM | 243.1 to 243.7 °C |  |  | 1460 ± 90 nM |
| Cc1c(C(C#N)c2ccnc(Nc3ccc(C#N)cc3)n2)ccc(C#N)c1Cl (centres unmarked) [Compound A11, 4-(4-(cyano-(2-methyl-3-chloro-4-cyanophenyl)methyl)-pyrimidin-2-ylamino)benzonitrile] |  | 300 ± 30 nM | 6100 ± 500 nM | 2320 ± 480 nM | > 6110 nM | > 6110 nM | > 6110 nM | > 6110 nM | > 6110 nM |  |  |  |  |
| N#Cc1ccc(Nc2nccc(C(C#N)c3ccc(C#N)cc3Br)n2)cc1 (centres unmarked) [Compound A9, 4-(4-(cyano-(2-bromo-4-cyanophenyl)methyl)-pyrimidin-2-ylamino)benzonitrile] | 42 | 79 ± 20 nM | 3400 ± 300 nM | > 3350 nM | ≥ 1880 nM | 1880 ± 420 nM | 2310 ± 20 nM | > 3350 nM | > 3350 nM | 223.5 to 224.7 °C |  |  |  |
| Cc1ccnc2c1NC(=O)c1cccnc1N2C1CC1 [Nevirapine, nevirapine, reference compound] |  |  | > 15000 nM | 980 ± 390 nM | 4700 ± 630 nM |  | 200 ± 150 nM | ≥ 4280 nM | > 15000 nM |  | 200 ± 100 nM |  |  |
| Cc1cnc(Nc2ccc(C#N)cc2)nc1C(C#N)c1ccc(C#N)cc1Br (centres unmarked) [Compound B4, 4-(4-(cyano-(2-bromo-4-cyanophenyl)methyl)-5-methylpyrimidin-2-ylamino)benzonitrile] |  | 6 ± 1 nM | 6600 ± 1300 nM | 510 ± 190 nM | 80 ± 30 nM | 160 ± 170 nM | 110 ± 40 nM | 2350 ± 180 nM | > 6620 nM |  |  |  | 60 ± 30 nM |
| Cc1cnc(Nc2ccc(C#N)cc2)nc1C(C#N)c1ccc(C#N)cc1F (centres unmarked) [Compound B2, 4-(4-(cyano-(2-fluoro-4-cyanophenyl)methyl)-5 methylpyrimidin-2-ylamino)benzonitrile] |  | 40 ± 20 nM | 20600 ± 3600 nM | 3040 ± 1130 nM | 1070 ± 370 nM | 1590 ± 180 nM | 970 ± 140 nM | > 20600 nM | > 20600 nM |  |  |  | 220 ± 50 nM |
| Cc1cc(C#N)c(Br)cc1C(C#N)c1nc(Nc2ccc(C#N)cc2)ncc1C (centres unmarked) [Compound B6, 4-(4-(cyano-(2-methyl-5-bromo-4-cyanophenyl)methyl)-5-methylpyrimidin-2-ylamino)benzonitrile] | 1215 | 8 ± 4 nM | 9800 ± 3500 nM | 860 ± 190 nM | 60 ± 10 nM | 330 ± 100 nM | 170 ± 60 nM | 1520 ± 150 nM | > 9790 nM | 232.3 to 233.9 °C |  |  | 60 ± 20 nM |
| Cc1cc(C#N)c(Br)cc1C(C#N)c1ccnc(Nc2ccc(C#N)cc2)n1 (centres unmarked) [Compound A12, 4-(4-(cyano-(2-methyl-5-bromo-4-cyanophenyl)methyl)-pyrimidin-2-ylamino)benzonitrile] |  | 240 ± 40 nM | 13200 ± 1600 nM | > 13200 nM | 2520 ± 420 nM | 2780 ± 360 nM | 3730 ± 590 nM | > 13200 nM | > 13200 nM |  |  |  |  |
| N#Cc1ccc(Nc2nccc(C(C#N)c3ccc(C#N)cc3F)n2)cc1 (centres unmarked) [Compound A7, 4-(4-(cyano-(2-fluoro-4-cyanophenyl)methyl)-pyrimidin-2-ylamino)benzonitrile] | 43 | 240 ± 160 nM | 10300 ± 4500 nM | > 10400 nM | > 10400 nM | > 10400 nM | > 10400 nM | > 10400 nM | > 10400 nM | 165.7 to 166.5 °C |  |  |  |
